Results taken from patent US10206902B2, “Mono- or di-substituted indoles as dengue viral replication inhibitors” (priority 2014, dated 2019).

What was measured:
in vitro = type: cell-based; conditions: African green monkey, CC50
Method: (§1) In parallel, the toxicity of the compounds was assessed on the same plates. Once the read-out for the eGFP signal was done, 10 μL of resazurin, a cell viability stain, was added to all wells of the 384-well plates. The resazurin assay is based on the reduction of the blue resazurin by NADH, produced by the cells, into the highly fluorescent product, resorufin. The formation of pink fluorescent resorufin is directly related to the number of viable cells in the well. The plates were incubated for an additional 5 hours in a fully humidified incubator (37° C., 5% CO2). Next, the plates were measured on an Infinite reader (Tecan) using an excitation wavelength of 530 nm. The half maximal cytotoxic concentration (CO50) was also determined, defined as the concentration required to reduce the resazurin conversion by 50% compared to that of the cell control wells (Table 1). Finally, the selectivity index (SI) was determined for the compounds, which was calculated as followed: SI=CC50/EC50.

DENV-2 16681 strain = assay: DENV-2 antiviral assay (eGFP-labelled virus in Vero cells); type: cell-based, Dengue virus; conditions: DENV-2 16681 eGFP, MOI 0.5, 3 days
Method: The antiviral activity of all the compounds of the invention was tested against DENV-2 16681 strain which was labeled with enhanced green fluorescent protein (eGPF). The culture medium consists of minimal essential medium supplemented with 2% of heat-inactivated fetal calf serum, 0.04% gentamycin (50 mg/mL) and 2 mM of L-glutamine. Vero cells, obtained from ECACC, were suspended in culture medium and 25 μL was added to 384-well plates (2500 cells/well), which already contain the antiviral compounds. Typically, these plates contain a 4-fold serial dilution of 9 dilution steps of the test compound at 200 times the final concentration in 100% DMSO (200 nL). In addition, each compound concentration is tested in quadruplicate (final concentration range: 25 μM-0.00038 μM). Finally, each plate contains wells which are assigned as virus controls (containing cells and virus in the absence of compound), cell controls (containing cells in the absence of virus and compound) and medium controls (containing medium in the absence of cells, virus and compounds). To the wells assigned as medium control, 25 μL of culture medium was added instead of Vero cells. Once the cells were added to the plates, the plates were incubated for 30 minutes at room temperature to allow the cells to distribute evenly within the wells. Next, the plates were incubated in a fully humidified incubator (37° C., 5% CO2) until the next day. Then, DENV-2 strain 16681, labeled with eGFP, was added at a multiplicity of infection (MOI) of 0.5. Therefore, 15 μL of virus suspension was added to all the wells containing test compound and to the wells assigned as virus control. In parallel, 15 μL of culture medium was added to the medium and cell controls. Next, the plates were incubated for 3 days in a fully humidified incubator (37° C., 5% CO2). At the day of the read out, the eGFP fluorescence was measured using an automated fluorescence microscope at 488 nm (blue laser). Using an in-house LIMS system, inhibition dose response curves for each compound were calculated and the half maximal effective concentration (EC50) was determined. Therefore, the percent inhibition (I) for every test concentration is calculated using the following formula: I=100*(ST−SCC)/(SVC−SCC); ST, SCC and SVC are the amount of eGFP signal in the test compound, cell control and virus control wells, respectively. The EC50 represents the concentration of a compound at which the virus replication is inhibited with 50%, as measured by a 50% reduction of the eGFP fluorescent intensity compared to the virus control. The EC50 is calculated using linear interpolation (Table 1).

Vero cells = assay: in vitro; type: cell-based; conditions: African green monkey
Method: as §1

[1] = Dengue virus, DENV2, Vero, 72 h

Compound | CC50 (in vitro) [nM] | EC50 (DENV-2 16681 strain; [1]) [nM] | EC50 (DENV-2 16681 strain) [nM] | CC50 (Vero cells) [nM]
COc1cc(NC(C(=O)c2c[nH]c3cc(F)ccc23)c2ccc(F)cc2OC)cc(OCCO)c1 (racemic) [Compound 1, 1-(6-fluoro-1H-indol-3-yl)-2-(4-fluoro-2-methoxyphenyl)-2-((3-(2-hydroxyethoxy)-5-methoxyphenyl)amino)ethanone] | 11000 | 8 |  | 
COc1cc(NC(C(=O)c2c[nH]c3c(C)c(F)ccc23)c2ccc(F)cc2OC)cc(OCCO)c1 (racemic) [Compound 2, 2-(4-fluoro-2-methoxyphenyl)-1-(6-fluoro-7-methyl-1H-indol-3-yl)-2-((3-(2-hydroxyethoxy)-5-methoxyphenyl)amino)ethanone] | 7000 | 5.4 |  | 
COc1cc(NC(C(=O)c2c[nH]c3c(C)c(Cl)ccc23)c2ccc(F)cc2OC)cc(OCCO)c1 (racemic) [Compound 3, 1-(6-chloro-7-methyl-1H-indol-3-yl)-2-(4-fluoro-2-methoxyphenyl)-2-((3-(2-hydroxyethoxy)-5-methoxyphenyl)amino)ethanone] | 6300 | 2.1 |  | 
COc1cc(NC(C(=O)c2c[nH]c3c(F)c(F)ccc23)c2ccc(F)cc2OC)cc(OCCO)c1 (racemic) [Compound 5, 1-(6,7-difluoro-1H-indol-3-yl)-2-(4-fluoro-2-methoxyphenyl)-2-((3-(2-hydroxyethoxy)-5-methoxyphenyl)amino)ethanone] | 5200 | 8.9 |  | 
COc1cc(NC(C(=O)c2c[nH]c3cc(OC)c(F)cc23)c2ccc(F)cc2OC)cc(OCCO)c1 (racemic) [Compound 7, 2-(4-fluoro-2-methoxyphenyl)-1-(5-fluoro-6-methoxy-1H-indol-3-yl)-2-((3-(2-hydroxyethoxy)-5-methoxyphenyl)amino)ethanone] | > 9700 | 14 |  | 
COc1cc(NC(C(=O)c2c[nH]c3c(Cl)c(OC)ccc23)c2ccc(F)cc2OC)cc(OCCO)c1 (racemic) [Compound 8, 1-(7-chloro-6-methoxy-1H-indol-3-yl)-2-(4-fluoro-2-methoxyphenyl)-2-((3-(2-hydroxyethoxy)-5-methoxyphenyl)amino)ethanone] | 6800 | 3.9 |  | 
COc1cc(NC(C(=O)c2c[nH]c3cc(F)c(F)cc23)c2ccc(F)cc2OC)cc(OCCO)c1 (racemic) [Compound 10, 1-(5,6-difluoro-1H-indol-3-yl)-2-(4-fluoro-2-methoxy-phenyl)-2-((3-(2-hydroxyethoxy)-5-methoxyphenyl)amino)ethanone] | 9300 | 6.8 |  | 
COc1cc(NC(C(=O)c2c[nH]c3c(C)c(OC)ccc23)c2ccc(F)cc2OC)cc(OCCO)c1 (racemic) [Compound 11, 2-(4-fluoro-2-methoxyphenyl)-2-((3-(2-hydroxyethoxy)-5-methoxyphenyl)amino)-1-(6-methoxy-7-methyl-1H-indol-3-yl)ethanone] | 10000 | 2.4 |  | 
COc1cc(NC(C(=O)c2c[nH]c3cc(F)ccc23)c2ccc(F)cc2OC)cc(OCCO)c1 (single isomer, unassigned) [Compound 1B, 1-(6-fluoro-1H-indol-3-yl)-2-(4-fluoro-2-methoxyphenyl)-2-((3-(2-hydroxyethoxy)-5-methoxyphenyl)amino)ethanone] | 12000 |  | 660 | 
COc1cc(NC(C(=O)c2c[nH]c3c(C)c(F)ccc23)c2ccc(F)cc2OC)cc(OCCO)c1 (single isomer, unassigned) [Compound 2A, 2-(4-fluoro-2-methoxyphenyl)-1-(6-fluoro-7-methyl-1H-indol-3-yl)-2-((3-(2-hydroxyethoxy)-5-methoxyphenyl)amino)ethanone] | 5400 |  | 660 | 
COc1cc(NC(C(=O)c2c[nH]c3c(C)c(Cl)ccc23)c2ccc(F)cc2OC)cc(OCCO)c1 (single isomer, unassigned) [Compound 3B, 1-(6-chloro-7-methyl-1H-indol-3-yl)-2-(4-fluoro-2-methoxyphenyl)-2-((3-(2-hydroxyethoxy)-5-methoxyphenyl)amino)ethanone] | 5800 |  | 180 | 
COc1cc(NC(C(=O)c2c[nH]c3cc(Cl)ccc23)c2ccc(F)cc2OC)cc(OCCO)c1 (single isomer, unassigned) [Compound 4B, 1-(6-chloro-1H-indol-3-yl)-2-(4-fluoro-2-methoxyphenyl)-2-((3-(2-hydroxyethoxy)-5-methoxyphenyl)amino)ethanone] | 7700 |  | 380 | 
COc1cc(NC(C(=O)c2c[nH]c3c(F)c(F)ccc23)c2ccc(F)cc2OC)cc(OCCO)c1 (single isomer, unassigned) [Compound 5A, 1-(6,7-difluoro-1H-indol-3-yl)-2-(4-fluoro-2-methoxyphenyl)-2-((3-(2-hydroxyethoxy)-5-methoxyphenyl)amino)ethanone] | 7400 |  | 440 | 
COc1cc(NC(C(=O)c2c[nH]c3cc(OC)c(C)cc23)c2ccc(F)cc2OC)cc(OCCO)c1 (single isomer, unassigned) [Compound 6B, 2-(4-fluoro-2-methoxyphenyl)-2-((3-(2-hydroxyethoxy)-5-methoxyphenyl)amino)-1-(6-methoxy-5-methyl-1H-indol-3-yl)ethanone] |  |  | 290 | 9600
COc1cc(NC(C(=O)c2c[nH]c3cc(OC)c(F)cc23)c2ccc(F)cc2OC)cc(OCCO)c1 (single isomer, unassigned) [Compound 7B, 2-(4-fluoro-2-methoxyphenyl)-1-(5-fluoro-6-methoxy-1H-indol-3-yl)-2-((3-(2-hydroxyethoxy)-5-methoxyphenyl)amino)ethanone] |  |  | 540 | 14000
COc1cc(NC(C(=O)c2c[nH]c3c(Cl)c(OC)ccc23)c2ccc(F)cc2OC)cc(OCCO)c1 (single isomer, unassigned) [Compound 8B, 1-(7-chloro-6-methoxy-1H-indol-3-yl)-2-(4-fluoro-2-methoxyphenyl)-2-((3-(2-hydroxyethoxy)-5-methoxyphenyl)amino)ethanone] | 9100 |  | 150 | 
COc1cc(NC(C(=O)c2c[nH]c3c(C)cc(F)cc23)c2ccc(F)cc2OC)cc(OCCO)c1 (single isomer, unassigned) [Compound 9A, 2-(4-fluoro-2-methoxyphenyl)-1-(5-fluoro-7-methyl-1H-indol-3-yl)-2-((3-(2-hydroxyethoxy)-5-methoxyphenyl)amino)ethanone] | 8800 |  | 630 | 
COc1cc(NC(C(=O)c2c[nH]c3cc(F)c(F)cc23)c2ccc(F)cc2OC)cc(OCCO)c1 (single isomer, unassigned) [Compound 10A, 1-(5,6-difluoro-1H-indol-3-yl)-2-(4-fluoro-2-methoxy-phenyl)-2-((3-(2-hydroxyethoxy)-5-methoxyphenyl)amino)ethanone] | 11000 |  | 580 | 
COc1cc(NC(C(=O)c2c[nH]c3c(C)c(OC)ccc23)c2ccc(F)cc2OC)cc(OCCO)c1 (single isomer, unassigned) [Compound 11B, 2-(4-fluoro-2-methoxyphenyl)-2-((3-(2-hydroxyethoxy)-5-methoxyphenyl)amino)-1-(6-methoxy-7-methyl-1H-indol-3-yl)ethanone] | 12000 |  | 410 | 
COc1cc(NC(C(=O)c2c[nH]c3c(F)cc(C)cc23)c2ccc(F)cc2OC)cc(OCCO)c1 (single isomer, unassigned) [Compound 12A, 2-(4-fluoro-2-methoxyphenyl)-1-(7-fluoro-5-methyl-1H-indol-3-yl)-2-((3-(2-hydroxyethoxy)-5-methoxyphenyl)amino)ethanone] | 9200 |  | 930 | 
